Source: PMC6085350, “Small molecule inhibitors of RAS-effector protein interactions derived using an intracellular antibody fragment” (Nature Communications, 2018)

Legend:
[1] = system: AKT phosphorylation (Ser473) in H358 cells (KRAS^G12C); experiment: Biomarker phosphorylation assay, pAKT, H358; type: cell-based, human; conditions: EGF 10 min
Method: (§1) Fig. 5 Abd-7 results on RAS-dependent signalling pathways and cell viability. a, b DLD-1 (a) or H358 (b) cells were serum-starved for 24 h, incubated in mono-layer with Abd-7 in a range from 2, 5, 10 and 20 μM for 3 h and stimulated with EGF 10 min. Proteins were extracted and separated by SDS-PAGE and transferred to membranes for Western analysis with anti-pAKT, anti-pERK, anti-pan AKT and anti-pan ERK. Anti-cyclophilin B antibody was the loading control. Signal was developed using standard ECL. c–e Effects of compounds Abd-2, Abd-4, Abd-5, Abd-6, and Abd-7 on the viability of human cancer cells lines was assessed for a 2-D culture of DLD-1 (mutant KRAS^G13D) cells and HT1080 cells (mutant NRAS^Q61K). The cells were treated with a dose range from 0 μM to 20 μ and incubated for 72 h when cell viability was assessed using CellTitreGlo. […] Each experiment was repeated at least three times (a, b) and four times (c, d). Where error bars are presented, they correspond to mean values ± SD of biological repeats
A total of 450,000 DLD1 or 640,000 H358 cells were seeded per well of a six well plate. Approximately, 20 h later, the medium was removed, the cells washed twice with PBS and DMEM without FBS was added and left for 24 h. The medium was removed and 2 ml of DMEM no FBS was added with the appropriate concentration of compound (DMSO, 2, 5, 10 or 20 μM) for 3 h. Cells were stimulated with EGF (50 ng/ml) for 10 min, washed once with PBS and directly lysed in SDS-Tris buffer (1% SDS, 10 mM Tris-HCl pH 7.4) supplemented with protease inhibitors (Sigma) and phosphatase inhibitors (Thermo-Fisher). Cell lysates were sonicated with a Branson Sonifier and the protein concentrations determined by using the Pierce BCA protein assay kit (Thermo-Fisher). Furthermore, 10 μg of protein were resolved on 10 or 12.5% SDS-PAGE and subsequently transferred onto a PVDF membrane (GE). The membrane was blocked (with 10% non-fat milk (Sigma) or 10% BSA (Sigma) in TBS-0.1% Tween20) and incubated overnight with primary antibody at 4 °C. […]

[2] = system: ERK1/2 phosphorylation in H358 cells (KRAS^G12C); experiment: Biomarker phosphorylation assay, pERK, H358; type: cell-based, human; conditions: H358, 2-20 μM, 3 h, EGF 10 min
Method: as §1
A total of 450,000 DLD1 or 640,000 H358 cells were seeded per well of a six well plate. Approximately, 20 h later, the medium was removed, the cells washed twice with PBS and DMEM without FBS was added and left for 24 h. […] Cell lysates were sonicated with a Branson Sonifier and the protein concentrations determined by using the Pierce BCA protein assay kit (Thermo-Fisher). […]

[3] = target: T1, BRAF (Homo sapiens, UniProt P15056); experiment: Kinase panel (KinaseProfiler); type: biochemical; conditions: 10μM
T1 construct: purchased Eurofins Pharma Discovery Services (KinaseProfiler)
Method: (§2) Experiments were performed by Eurofins Pharma Discovery Services. The KinaseProfiler™ assay protocol guide can be downloaded from their website: www.eurofins.com/discoveryservices. The guide contains information on the buffer conditions, substrate and reference inhibitor blank used for each kinase.
(§3) Supplementary Table 3. Assessment of potential interaction of Abd-7 with a human kinase
(§4) Kinase % kinase activity in
(§5) A panel of 14 Kinases (relevant to the RAS pathway) has been screened against Abd-7
(§6) (10μM) and the kinase activity was measured. […] of activity was observe for all
(§7) function of the selected and RAS relevant kinase proteins.

[4] = target: T2, CRAF (Homo sapiens, UniProt P04049); experiment: Kinase panel (KinaseProfiler); type: biochemical; conditions: 10μM
T2 construct: purchased Eurofins Pharma Discovery Services (KinaseProfiler)
Method: as §2, §3, §4, §5, §6, §7

[5] = target: T3, EGFR (Homo sapiens, UniProt P00533); experiment: Kinase panel (KinaseProfiler); type: biochemical; conditions: 10μM
T3 construct: purchased Eurofins Pharma Discovery Services (KinaseProfiler)
T3 sequence (P00533 25-1210): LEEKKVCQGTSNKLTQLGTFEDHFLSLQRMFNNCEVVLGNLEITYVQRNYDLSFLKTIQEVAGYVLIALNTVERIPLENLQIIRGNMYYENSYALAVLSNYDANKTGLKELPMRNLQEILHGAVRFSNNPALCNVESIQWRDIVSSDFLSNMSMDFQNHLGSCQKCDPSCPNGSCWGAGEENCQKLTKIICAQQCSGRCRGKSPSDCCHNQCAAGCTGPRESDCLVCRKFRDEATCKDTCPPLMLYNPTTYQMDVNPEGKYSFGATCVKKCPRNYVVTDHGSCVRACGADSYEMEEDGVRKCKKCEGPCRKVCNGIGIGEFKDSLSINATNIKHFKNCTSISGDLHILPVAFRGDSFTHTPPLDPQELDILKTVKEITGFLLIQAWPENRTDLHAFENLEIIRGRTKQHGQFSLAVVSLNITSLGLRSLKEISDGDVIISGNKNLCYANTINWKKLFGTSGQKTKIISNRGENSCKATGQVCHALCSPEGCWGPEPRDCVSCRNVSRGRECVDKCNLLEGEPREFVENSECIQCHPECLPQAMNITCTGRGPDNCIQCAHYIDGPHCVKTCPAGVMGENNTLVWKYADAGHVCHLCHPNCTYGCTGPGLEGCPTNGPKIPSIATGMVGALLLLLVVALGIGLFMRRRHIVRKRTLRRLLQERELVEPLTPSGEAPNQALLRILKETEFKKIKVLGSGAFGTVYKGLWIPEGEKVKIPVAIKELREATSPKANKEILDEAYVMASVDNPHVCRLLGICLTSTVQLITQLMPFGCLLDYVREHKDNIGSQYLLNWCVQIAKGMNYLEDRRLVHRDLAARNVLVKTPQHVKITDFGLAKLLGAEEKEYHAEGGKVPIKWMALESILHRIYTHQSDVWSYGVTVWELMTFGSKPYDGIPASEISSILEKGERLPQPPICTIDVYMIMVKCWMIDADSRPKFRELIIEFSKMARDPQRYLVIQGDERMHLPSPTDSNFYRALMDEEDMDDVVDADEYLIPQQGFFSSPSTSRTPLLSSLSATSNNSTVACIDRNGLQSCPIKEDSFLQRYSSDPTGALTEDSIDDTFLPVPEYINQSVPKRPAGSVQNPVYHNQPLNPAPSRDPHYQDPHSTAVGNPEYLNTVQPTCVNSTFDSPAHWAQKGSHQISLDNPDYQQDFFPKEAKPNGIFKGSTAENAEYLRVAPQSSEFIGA
Method: as §2, §3, §4, §5, §6, §7

[6] = target: T4, MAPK1 (Homo sapiens, UniProt P27361); experiment: Kinase panel (KinaseProfiler); type: biochemical; conditions: MAPK1, 10μM
T4 construct: purchased Eurofins Pharma Discovery Services (KinaseProfiler)
T4 sequence (P27361 whole entry): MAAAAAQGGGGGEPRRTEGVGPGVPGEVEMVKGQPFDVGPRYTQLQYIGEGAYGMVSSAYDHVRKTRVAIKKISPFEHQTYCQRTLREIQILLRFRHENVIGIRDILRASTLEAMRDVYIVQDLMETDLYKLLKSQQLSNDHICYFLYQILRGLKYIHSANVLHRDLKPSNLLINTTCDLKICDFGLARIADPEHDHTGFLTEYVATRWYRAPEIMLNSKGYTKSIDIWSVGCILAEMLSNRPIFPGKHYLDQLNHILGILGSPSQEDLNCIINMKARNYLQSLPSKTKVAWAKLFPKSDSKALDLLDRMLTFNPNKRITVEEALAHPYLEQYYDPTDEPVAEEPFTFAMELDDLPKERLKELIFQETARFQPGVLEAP
Method: as §2, §3, §4, §5, §6, §7

[7] = target: T5, MAPK2 (Homo sapiens, UniProt P28482); experiment: Kinase panel (KinaseProfiler); type: biochemical; conditions: MAPK2, 10μM
T5 construct: purchased Eurofins Pharma Discovery Services (KinaseProfiler)
T5 sequence (P28482 whole entry): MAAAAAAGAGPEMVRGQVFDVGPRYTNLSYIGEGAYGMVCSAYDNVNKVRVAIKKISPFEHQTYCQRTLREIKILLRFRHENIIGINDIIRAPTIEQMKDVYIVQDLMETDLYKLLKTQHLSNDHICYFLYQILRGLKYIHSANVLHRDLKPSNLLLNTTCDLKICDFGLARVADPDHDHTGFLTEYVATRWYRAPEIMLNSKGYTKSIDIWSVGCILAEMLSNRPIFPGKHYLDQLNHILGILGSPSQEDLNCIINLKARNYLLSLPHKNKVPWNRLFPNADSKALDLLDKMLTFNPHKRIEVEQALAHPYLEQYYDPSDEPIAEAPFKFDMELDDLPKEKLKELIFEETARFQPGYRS
Method: as §2, §3, §4, §5, §6, §7

[8] = target: T6, MEK1 (Homo sapiens, UniProt Q02750); experiment: Kinase panel (KinaseProfiler); type: biochemical; conditions: MEK1, 10μM
T6 construct: purchased Eurofins Pharma Discovery Services (KinaseProfiler)
T6 sequence (Q02750 whole entry): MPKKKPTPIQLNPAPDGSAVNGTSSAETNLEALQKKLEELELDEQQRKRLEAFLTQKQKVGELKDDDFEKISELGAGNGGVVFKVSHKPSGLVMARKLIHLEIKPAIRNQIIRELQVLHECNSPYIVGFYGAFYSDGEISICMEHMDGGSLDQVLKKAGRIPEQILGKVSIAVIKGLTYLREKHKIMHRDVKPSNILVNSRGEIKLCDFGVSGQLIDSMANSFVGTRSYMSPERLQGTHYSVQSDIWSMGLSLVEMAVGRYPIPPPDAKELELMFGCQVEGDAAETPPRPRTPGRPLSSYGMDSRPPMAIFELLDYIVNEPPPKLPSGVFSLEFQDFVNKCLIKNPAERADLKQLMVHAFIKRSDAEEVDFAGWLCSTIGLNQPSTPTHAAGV
Method: as §2, §3, §4, §5, §6, §7

[9] = target: T7, MEK2 (Homo sapiens, UniProt P36507); experiment: Kinase panel (KinaseProfiler); type: biochemical; conditions: MEK2, 10μM
T7 construct: purchased Eurofins Pharma Discovery Services (KinaseProfiler)
T7 sequence (P36507 whole entry): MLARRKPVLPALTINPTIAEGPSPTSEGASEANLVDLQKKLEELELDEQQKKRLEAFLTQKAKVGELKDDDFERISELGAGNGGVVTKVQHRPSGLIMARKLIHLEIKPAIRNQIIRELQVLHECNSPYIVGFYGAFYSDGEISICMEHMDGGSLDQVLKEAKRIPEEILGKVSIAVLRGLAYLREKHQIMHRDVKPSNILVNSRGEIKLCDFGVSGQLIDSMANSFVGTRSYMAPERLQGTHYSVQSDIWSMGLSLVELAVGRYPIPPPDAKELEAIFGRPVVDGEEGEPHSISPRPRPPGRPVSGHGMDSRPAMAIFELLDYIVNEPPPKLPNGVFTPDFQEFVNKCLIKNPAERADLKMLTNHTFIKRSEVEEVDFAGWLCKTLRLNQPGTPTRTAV
Method: as §2, §3, §4, §5, §6, §7

[10] = target: T8, PDK1 (Homo sapiens, UniProt O15530); experiment: Kinase panel (KinaseProfiler); type: biochemical; conditions: PDK1, 10μM
T8 construct: purchased Eurofins Pharma Discovery Services (KinaseProfiler)
T8 sequence (O15530 whole entry): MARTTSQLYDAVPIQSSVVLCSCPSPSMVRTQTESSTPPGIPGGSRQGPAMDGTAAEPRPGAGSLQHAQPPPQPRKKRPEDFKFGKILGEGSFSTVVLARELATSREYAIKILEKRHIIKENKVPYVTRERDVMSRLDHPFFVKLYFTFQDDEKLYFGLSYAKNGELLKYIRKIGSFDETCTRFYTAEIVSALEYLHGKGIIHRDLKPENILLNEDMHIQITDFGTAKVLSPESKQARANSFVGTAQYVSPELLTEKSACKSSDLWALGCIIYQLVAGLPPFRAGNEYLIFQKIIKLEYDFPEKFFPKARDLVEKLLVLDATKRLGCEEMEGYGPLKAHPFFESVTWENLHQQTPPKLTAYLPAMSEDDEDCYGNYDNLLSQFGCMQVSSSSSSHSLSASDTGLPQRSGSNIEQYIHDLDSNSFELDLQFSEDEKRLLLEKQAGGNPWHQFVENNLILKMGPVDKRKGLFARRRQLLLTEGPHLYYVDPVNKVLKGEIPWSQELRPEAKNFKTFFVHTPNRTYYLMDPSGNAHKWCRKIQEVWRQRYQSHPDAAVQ
Method: as §2, §3, §4, §5, §6, §7

[11] = target: T9, PKBα (Homo sapiens, UniProt P31749); experiment: Kinase panel (KinaseProfiler); type: biochemical; conditions: 10μM
T9 construct: purchased Eurofins Pharma Discovery Services (KinaseProfiler)
T9 sequence (P31749 whole entry): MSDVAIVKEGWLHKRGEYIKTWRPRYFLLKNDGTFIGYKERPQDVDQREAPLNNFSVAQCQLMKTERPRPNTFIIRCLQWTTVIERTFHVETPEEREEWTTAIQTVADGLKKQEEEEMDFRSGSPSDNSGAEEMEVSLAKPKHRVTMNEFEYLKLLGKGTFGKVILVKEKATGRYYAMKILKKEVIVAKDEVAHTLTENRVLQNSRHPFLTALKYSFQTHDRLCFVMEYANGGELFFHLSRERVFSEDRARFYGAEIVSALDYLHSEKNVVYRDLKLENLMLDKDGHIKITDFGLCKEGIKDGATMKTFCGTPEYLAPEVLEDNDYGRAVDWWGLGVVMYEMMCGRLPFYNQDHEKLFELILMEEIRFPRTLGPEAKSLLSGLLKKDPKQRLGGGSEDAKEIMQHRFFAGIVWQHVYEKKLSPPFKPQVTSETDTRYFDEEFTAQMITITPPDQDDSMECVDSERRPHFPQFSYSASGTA
Method: as §2, §3, §4, §5, §6, §7

[12] = target: T10, PKBβ (Homo sapiens, UniProt P31751); experiment: Kinase panel (KinaseProfiler); type: biochemical; conditions: 10μM
T10 construct: purchased Eurofins Pharma Discovery Services (KinaseProfiler)
T10 sequence (P31751 whole entry): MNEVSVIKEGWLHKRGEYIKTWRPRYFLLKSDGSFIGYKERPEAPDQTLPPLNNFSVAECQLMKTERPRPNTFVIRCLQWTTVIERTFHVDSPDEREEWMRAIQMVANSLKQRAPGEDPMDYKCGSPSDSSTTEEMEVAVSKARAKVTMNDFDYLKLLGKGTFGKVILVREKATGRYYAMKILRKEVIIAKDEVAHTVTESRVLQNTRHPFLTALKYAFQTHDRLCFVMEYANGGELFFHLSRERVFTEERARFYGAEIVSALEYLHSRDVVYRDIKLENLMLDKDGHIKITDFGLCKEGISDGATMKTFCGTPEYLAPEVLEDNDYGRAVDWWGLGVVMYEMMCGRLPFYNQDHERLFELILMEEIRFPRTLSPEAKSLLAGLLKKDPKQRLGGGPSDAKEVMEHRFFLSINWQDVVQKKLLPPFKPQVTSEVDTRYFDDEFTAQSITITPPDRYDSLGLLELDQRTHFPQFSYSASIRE
Method: as §2, §3, §4, §5, §6, §7

[13] = target: T11, PKBγ (Homo sapiens, UniProt Q9Y243); experiment: Kinase panel (KinaseProfiler); type: biochemical; conditions: 10μM
T11 construct: purchased Eurofins Pharma Discovery Services (KinaseProfiler)
T11 sequence (Q9Y243 whole entry): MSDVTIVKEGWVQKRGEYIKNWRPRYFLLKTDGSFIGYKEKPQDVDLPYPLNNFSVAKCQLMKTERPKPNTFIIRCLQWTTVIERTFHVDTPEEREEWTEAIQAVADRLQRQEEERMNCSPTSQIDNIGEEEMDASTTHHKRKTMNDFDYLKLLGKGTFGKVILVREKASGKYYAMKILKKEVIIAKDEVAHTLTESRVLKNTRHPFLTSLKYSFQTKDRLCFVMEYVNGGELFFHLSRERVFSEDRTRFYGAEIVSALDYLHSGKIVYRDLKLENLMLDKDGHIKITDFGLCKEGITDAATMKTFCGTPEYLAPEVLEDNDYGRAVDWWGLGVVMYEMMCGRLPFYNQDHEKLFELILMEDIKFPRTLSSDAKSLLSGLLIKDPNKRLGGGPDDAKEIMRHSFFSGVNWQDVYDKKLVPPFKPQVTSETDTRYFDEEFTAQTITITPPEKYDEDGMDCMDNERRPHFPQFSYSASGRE
Method: as §2, §3, §4, §5, §6, §7

[14] = target: T12, mTOR (Homo sapiens, UniProt P42345); experiment: Kinase panel (KinaseProfiler); type: biochemical; conditions: 10μM
T12 construct: purchased Eurofins Pharma Discovery Services (KinaseProfiler)
Method: as §2, §3, §4, §5, §6, §7

% kinase activity in the presence of Abd-7 [3]: 104%
% kinase activity in the presence of Abd-7 [4]: 101%
% kinase activity in the presence of Abd-7 [5]: 93%
% kinase activity in the presence of Abd-7 [6]: 126%
% kinase activity in the presence of Abd-7 [7]: 111%
% kinase activity in the presence of Abd-7 [8]: 105%
% kinase activity in the presence of Abd-7 [9]: 101%
% kinase activity in the presence of Abd-7 [10]: 107%
% kinase activity in the presence of Abd-7 [11]: 91%
% kinase activity in the presence of Abd-7 [12]: 93%
% kinase activity in the presence of Abd-7 [13]: 103%
% kinase activity in the presence of Abd-7 [14]: 89%
SMILES: COc1nc(-c2cccc3c2OCCO3)ccc1Nc1ccc(CN(C)C)cc1 [Abd-7]
inhibition of AKT phosphorylation ([1]; H358, 20 μM, 3 h): complete inhibition
concentration at which inhibition of AKT phosphorylation initiates ([1]; H358, starved 24 h, 3 h compound, Western): 2 µM
inhibition at 10 µM ([1]; Homo sapiens, NCI-H358, H358, 10 μM, 3 h): > 50%
inhibition of ERK1/2 phosphorylation [2]: diminution of pERK levels
